# Experimental data reported in patent US20130172294A1, “Treatment with VB-201” (Vascular Biogenics Ltd., priority 2010, published 2013).
# Assay: Effect of food and capsule coating on single-dose pharmacokinetics (Example 3)
# Type: in vivo, human
# Description: Determination of VB-201 concentrations in plasma was performed using an HPLC-MS/MS (high performance liquid chromatography with tandem mass spectrometric detection) assay. Calibration was for a range of from 5 to 500 ng/ml for low doses and from 50 to 5000 ng/ml for high doses. Pharmacokinetic parameters were estimated by using a non-compartmental method, except for the AUC (area under curve), which was determined using a (log-) trapezoidal rule as the area above the previous trough level. All calculations were made using PKWizard (developed by Russell Barbare and Dr. […] was validated against WinNonlin (Pharsight Corp.), which is an FDA-recognized validated program. Pharmacokinetic parameters were calculated by the program according to standard methods used in the art. Calculation of the pharmacokinetic characteristics was based on the actual blood sampling time (in hours), with predose times set to zero. Concentrations below the LLOQ (lower limit of quantification; 4.974 ng/ml) were assumed to be zero. The effects of food on the pharmacokinetics of enteric coated and non-coated VB-201 capsules were investigated in a double-blind, placebo-controlled study in healthy subjects. Cohorts of six subjects each received a single dose of 10 mg, 2×10 mg or 20 mg VB-201 in the morning. […] Subjects were randomly assigned to receive the drug when fed (i.e., following completion of a standardized high fat meal) or when fasting (i.e., fasting for at least 10 hours). […] Subjects then underwent an additional 8 day washout period, after which subjects underwent a second administration. Subjects who received the first administration when fasting, received the second administration when fed, and subjects who received the first administration when fed, received the second administration when fasting. Following the second administration, blood samples were taken at the same times post-dose as previously. Concentration-time curves were constructed for time periods of up to 144 hours. Pharmacokinetic parameters were calculated based on data for the first 24 hours and for the whole 144 hours. […] Nevertheless, parameters were also calculated from data covering the first 24 hours in order to compare parameters with previous studies. Statistical comparisons of doses, coated vs. non-coated capsules, feeding vs. fasting and coating-feeding interactions were performed using a mixed model ANOVA in an SAS 8.02 software package (SAS Institute, Cary, N.C.) using PROC MIXED
smiles,measurement,setting,value
"CCCCCCCCCCCCCCCCOCC(COP(=O)([O-])OCC[N+](C)(C)C)OCCCCC(=O)O (stereo not shown) [VB-201, 1-hexadecyl-2-(4′-carboxybutyl)-glycerol-3-phosphocholine]","AUC (0-infinity, from 24)",1 × 20 mg non-coated fasting,16958 ng·h/mL
same,"AUC (0-infinity, from 144)",1 × 20 mg non-coated fasting,29478 ng·h/mL
same,AUC(0-24),1 × 20 mg non-coated fasting,10013 ng·h/mL
same,AUC(0-144),1 × 20 mg non-coated fasting,26650 ng·h/mL
same,AUMC (0-24),1 × 20 mg non-coated fasting,122207 hours^2*ng/ml
same,AUMC (0-infinity),1 × 20 mg non-coated fasting,1763607 hours^2*ng/ml
same,Cl/F (0-24),1 × 20 mg non-coated fasting,1.301 L/h
same,Cl/F (from 144),1 × 20 mg non-coated fasting,0.702 L/h
same,Cmax,1 × 20 mg non-coated fasting,660.4 ng/mL
same,Ke (from 24),1 × 20 mg non-coated fasting,0.0486 h⁻¹
same,Ke (from 144),1 × 20 mg non-coated fasting,0.0166 h⁻¹
same,MTT (0-24),1 × 20 mg non-coated fasting,12.0 h
same,MTT (from 144),1 × 20 mg non-coated fasting,61.0 h
same,T1/2 (from 24),1 × 20 mg non-coated fasting,14.6 h
same,T1/2 (from 144),1 × 20 mg non-coated fasting,43.5 h
same,Tmax,1 × 20 mg non-coated fasting,8.33 h
same,"AUC (0-infinity, from 24)",1 × 20 mg non-coated fed,23552 ng·h/mL
same,"AUC (0-infinity, from 144)",1 × 20 mg non-coated fed,26424 ng·h/mL
same,AUC(0-24),1 × 20 mg non-coated fed,8334 ng·h/mL
same,AUC(0-144),1 × 20 mg non-coated fed,24282 ng·h/mL
same,AUMC (0-24),1 × 20 mg non-coated fed,111005 hours^2*ng/ml
same,AUMC (0-infinity),1 × 20 mg non-coated fed,1555946 hours^2*ng/ml
same,Cl/F (0-24),1 × 20 mg non-coated fed,1.197 L/h
same,Cl/F (from 144),1 × 20 mg non-coated fed,0.852 L/h
same,Cmax,1 × 20 mg non-coated fed,546.4 ng/mL
same,Ke (from 24),1 × 20 mg non-coated fed,0.0332 h⁻¹
same,Ke (from 144),1 × 20 mg non-coated fed,0.0193 h⁻¹
same,MTT (0-24),1 × 20 mg non-coated fed,13.0 h
same,MTT (from 144),1 × 20 mg non-coated fed,57.2 h
same,T1/2 (from 24),1 × 20 mg non-coated fed,25.2 h
same,T1/2 (from 144),1 × 20 mg non-coated fed,36.4 h
same,Tmax,1 × 20 mg non-coated fed,8.17 h
same,"AUC (0-infinity, from 24)",2 × 10 mg coated fasting,10388 ng·h/mL
same,"AUC (0-infinity, from 144)",2 × 10 mg coated fasting,24950 ng·h/mL
same,AUC(0-24),2 × 10 mg coated fasting,6427 ng·h/mL
same,AUC(0-144),2 × 10 mg coated fasting,20269 ng·h/mL
same,AUMC (0-24),2 × 10 mg coated fasting,83132 hours^2*ng/ml
same,AUMC (0-infinity),2 × 10 mg coated fasting,2246560 hours^2*ng/ml
same,Cl/F (0-24),2 × 10 mg coated fasting,3.318 L/h
same,Cl/F (from 144),2 × 10 mg coated fasting,1.815 L/h
same,Cmax,2 × 10 mg coated fasting,424.6 ng/mL
same,Ke (from 24),2 × 10 mg coated fasting,0.0493 h⁻¹
same,Ke (from 144),2 × 10 mg coated fasting,0.0174 h⁻¹
same,MTT (0-24),2 × 10 mg coated fasting,12.9 h
same,MTT (from 144),2 × 10 mg coated fasting,69.2 h
same,T1/2 (from 24),2 × 10 mg coated fasting,14.9 h
same,T1/2 (from 144),2 × 10 mg coated fasting,48.0 h
same,Tmax,2 × 10 mg coated fasting,9.67 h
same,"AUC (0-infinity, from 24)",2 × 10 mg coated fed,15799 ng·h/mL
same,"AUC (0-infinity, from 144)",2 × 10 mg coated fed,24463 ng·h/mL
same,AUC(0-24),2 × 10 mg coated fed,5008 ng·h/mL
same,AUC(0-144),2 × 10 mg coated fed,21417 ng·h/mL
same,AUMC (0-24),2 × 10 mg coated fed,74749 hours^2*ng/ml
same,AUMC (0-infinity),2 × 10 mg coated fed,1794144 hours^2*ng/ml
same,Cl/F (0-24),2 × 10 mg coated fed,2.067 L/h
same,Cl/F (from 144),2 × 10 mg coated fed,1.239 L/h
same,Cmax,2 × 10 mg coated fed,422.3 ng/mL
same,Ke (from 24),2 × 10 mg coated fed,0.0427 h⁻¹
same,Ke (from 144),2 × 10 mg coated fed,0.0196 h⁻¹
same,MTT (0-24),2 × 10 mg coated fed,15.1 h
same,MTT (from 144),2 × 10 mg coated fed,64.6 h
same,T1/2 (from 24),2 × 10 mg coated fed,22.8 h
same,T1/2 (from 144),2 × 10 mg coated fed,37.7 h
same,Tmax,2 × 10 mg coated fed,14.33 h
same,"AUC (0-infinity, from 24)",2 × 10 mg non-coated fasting,14643 ng·h/mL
same,"AUC (0-infinity, from 144)",2 × 10 mg non-coated fasting,25734 ng·h/mL
same,AUC(0-24),2 × 10 mg non-coated fasting,10036 ng·h/mL
same,AUC(0-144),2 × 10 mg non-coated fasting,24028 ng·h/mL
same,AUMC (0-24),2 × 10 mg non-coated fasting,117485 hours^2*ng/ml
same,AUMC (0-infinity),2 × 10 mg non-coated fasting,1319516 hours^2*ng/ml
same,Cl/F (0-24),2 × 10 mg non-coated fasting,1.444 L/h
same,Cl/F (from 144),2 × 10 mg non-coated fasting,0.810 L/h
same,Cmax,2 × 10 mg non-coated fasting,724.4 ng/mL
same,Ke (from 24),2 × 10 mg non-coated fasting,0.0606 h⁻¹
same,Ke (from 144),2 × 10 mg non-coated fasting,0.0195 h⁻¹
same,MTT (0-24),2 × 10 mg non-coated fasting,11.7 h
same,MTT (from 144),2 × 10 mg non-coated fasting,51.5 h
same,T1/2 (from 24),2 × 10 mg non-coated fasting,11.7 h
same,T1/2 (from 144),2 × 10 mg non-coated fasting,36.3 h
same,Tmax,2 × 10 mg non-coated fasting,8.67 h
same,"AUC (0-infinity, from 24)",2 × 10 mg non-coated fed,15305 ng·h/mL
same,"AUC (0-infinity, from 144)",2 × 10 mg non-coated fed,25822 ng·h/mL
same,AUC(0-24),2 × 10 mg non-coated fed,8708 ng·h/mL
same,AUC(0-144),2 × 10 mg non-coated fed,24104 ng·h/mL
same,AUMC (0-24),2 × 10 mg non-coated fed,109878 hours^2*ng/ml
same,AUMC (0-infinity),2 × 10 mg non-coated fed,1409500 hours^2*ng/ml
same,Cl/F (0-24),2 × 10 mg non-coated fed,1.394 L/h
same,Cl/F (from 144),2 × 10 mg non-coated fed,0.802 L/h
same,Cmax,2 × 10 mg non-coated fed,652.1 ng/mL
same,Ke (from 24),2 × 10 mg non-coated fed,0.0528 h⁻¹
same,Ke (from 144),2 × 10 mg non-coated fed,0.0195 h⁻¹
same,MTT (0-24),2 × 10 mg non-coated fed,12.7 h
same,MTT (from 144),2 × 10 mg non-coated fed,54.3 h
same,T1/2 (from 24),2 × 10 mg non-coated fed,15.4 h
same,T1/2 (from 144),2 × 10 mg non-coated fed,36.1 h
same,Tmax,2 × 10 mg non-coated fed,8.50 h
same,effect of enteric coatings on Tmax,enteric coated vs non-coated,increased
